# In patent US9157121B2, “Method of treatment based on polymorphisms of the KCNQ1 gene” (Vanda Pharmaceuticals, Inc., priority 2009, dated 2015):
# Values joined by “and” are separate entries in the source; they are usually repeats but may differ in a detail not shown here. Equal entries are not always repeated.
# How the values were obtained:
# CYP2D6 = CYP2D6 (Homo sapiens, UniProt P10635); details: cited from earlier work
# QTc interval [1] = experiment: QTcF change following iloperidone or ziprasidone administration, by KCNQ1 and CYP2D6 genotype; assay type: in vivo, human; details: for QTcFmax Change: change from baseline
# Experimental: The DNA variants in KCNQ1 noted above were examined for correlation with iloperidone-induced QT prolongation.
# Individuals from an earlier study of CYP2D6 genotypes and a predisposition to QT prolongation were genotyped at each of the KCNQ1 SNPs above. 22 individuals had been given a dose of 8 mg of iloperidone b.i.d., 30 had been given 12 mg b.i.d., and 22 had been given 24 mg q.d.
# The results were similar when ziprasidone was administered at a dosage of 80 mg b.i.d. The QTc changes for each genotype are shown below in Tables 4 and 5.
# Tables 10 and 11 below show CYP2D6 metabolizer status against QTcFmax change from baseline for individuals having GG and non-GG genotypes, respectively, at the KCNQ1 79764 position SNP.
# In order to assess the CYP2D6 component to such prolongation, QTc change was separately compared to the CYP2D6G1846A and CYP2D6C100T polymorphisms.
# Tables 14 and 15 below show QTc changes in individuals grouped according to their KCNQ1 79764, CYP2D6G1846A, and CYP2D6C100T genotypes. […] Similarly, individuals who were GG at KCNQ1 79764 and had one or two mutant alleles at the CYP2D6 loci (i.e., AG or AA at CYP2D6G1846A and CT or TT at CYP2D6C100T) experienced the greatest QT prolongation.
# QT interval = experiment: QT prolongation following iloperidone in 174 individuals genotyped at SNP_A-2279707 (rs179407); assay type: in vivo, human; details: oral 24 mg/day B.I.D. for two weeks; for High QT, + test (number of individuals) / Low QT, + test (number of individuals): rs179407 genotype TT; for High QT, − test (number of individuals) / Low QT, − test (number of individuals): rs179407 genotype not TT; for Odds Ratio: rs179407 TT versus not TT
# QTc interval [2] = details: cited from earlier work
# QTc interval [3] = details: cited from earlier work; for QTc prolongation: comparison of several antipsychotics
# Sequence of CYP2D6 (P10635 whole entry): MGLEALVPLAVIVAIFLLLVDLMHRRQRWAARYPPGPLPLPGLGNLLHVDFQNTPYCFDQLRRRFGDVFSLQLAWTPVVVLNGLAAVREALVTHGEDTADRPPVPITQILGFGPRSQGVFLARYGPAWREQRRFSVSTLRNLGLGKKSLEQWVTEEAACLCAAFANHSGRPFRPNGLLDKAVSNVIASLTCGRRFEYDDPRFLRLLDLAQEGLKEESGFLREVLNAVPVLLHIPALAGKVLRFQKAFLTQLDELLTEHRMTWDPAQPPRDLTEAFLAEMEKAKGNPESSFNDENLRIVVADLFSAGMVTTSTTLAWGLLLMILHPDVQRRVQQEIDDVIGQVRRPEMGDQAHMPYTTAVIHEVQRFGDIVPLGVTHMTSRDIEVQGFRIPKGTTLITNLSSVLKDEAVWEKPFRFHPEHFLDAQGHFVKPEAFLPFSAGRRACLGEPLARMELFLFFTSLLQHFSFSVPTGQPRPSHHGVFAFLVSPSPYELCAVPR
compound,measurement,setting,value
COc1cc(C(C)=O)ccc1OCCCN1CCC(c2noc3cc(F)ccc23)CC1 [Iloperidone],metabolizing enzyme,CYP2D6,metabolized by CYP2D6
same,QTcFmax Change,"QTc interval [1]; KCNQ1 79764 genotype GG, CYP2D6 metabolizer status Extensive",16.4 ms
same,QTcFmax Change,"QTc interval [1]; KCNQ1 79764 genotype GG, CYP2D6 metabolizer status Intermediate",18.1 ms
same,QTcFmax Change,"QTc interval [1]; KCNQ1 79764 genotype GG, CYP2D6 metabolizer status Poor",33.6 ms
same,QTcFmax Change,"QTc interval [1]; KCNQ1 79764 genotype Non-GG, CYP2D6 metabolizer status Extensive",8.3 ms
same,QTcFmax Change,"QTc interval [1]; KCNQ1 79764 genotype Non-GG, CYP2D6 metabolizer status Intermediate",3.1 ms
same,QTcFmax Change,"QTc interval [1]; KCNQ1 79764 genotype Non-GG, CYP2D6 metabolizer status Poor",24.6 ms
same,QTcF change,"QTc interval [1]; iloperidone 8 mg b.i.d., 12 mg b.i.d. or 24 mg q.d., KCNQ1 79764 SNP genotype CC",10.38 ms
same,QTcF change,"QTc interval [1]; iloperidone 8 mg b.i.d., 12 mg b.i.d. or 24 mg q.d., KCNQ1 79764 SNP genotype CG",6.80 ms
same,QTcF change,"QTc interval [1]; iloperidone 8 mg b.i.d., 12 mg b.i.d. or 24 mg q.d., KCNQ1 79764 SNP genotype GG",17.58 ms
same,QTcF change,"QTc interval [1]; iloperidone 8 mg b.i.d., 12 mg b.i.d. or 24 mg q.d., KCNQ1 79764 SNP genotype Non-GG",7.83 ms
same,QTcF change,"QTc interval [1]; iloperidone, CYP2D6C100T genotype CC",10.8 ms
same,QTcF change,"QTc interval [1]; iloperidone, CYP2D6C100T genotype CT",16.9 ms
same,QTcF change,"QTc interval [1]; iloperidone, CYP2D6C100T genotype Non-CC",19.2 ms
same,QTcF change,"QTc interval [1]; iloperidone, CYP2D6C100T genotype TT",31.3 ms
same,QTcF change,"QTc interval [1]; iloperidone, CYP2D6G1846A genotype AA",41.6 ms
same,QTcF change,"QTc interval [1]; iloperidone, CYP2D6G1846A genotype AG",15.9 ms
same,QTcF change,"QTc interval [1]; iloperidone, CYP2D6G1846A genotype GG",11.1 ms
same,QTcF change,"QTc interval [1]; iloperidone, CYP2D6G1846A genotype Non-GG",18.5 ms
same,QTcF change,"QTc interval [1]; iloperidone, KCNQ1 78927 position SNP genotype AA",7.21 ms
same,QTcF change,"QTc interval [1]; iloperidone, KCNQ1 78927 position SNP genotype AC",9.19 ms
same,QTcF change,"QTc interval [1]; iloperidone, KCNQ1 78927 position SNP genotype CC",14.08 ms
same,QTcF change,"QTc interval [1]; iloperidone, KCNQ1 78927 position SNP genotype Non-CC",6.46 ms
same,QTcF change,"QTc interval [1]; iloperidone, KCNQ1 79764 GG and CYP2D6C100T CC",19.2 (n = 15) msec
same,QTcF change,"QTc interval [1]; iloperidone, KCNQ1 79764 GG and CYP2D6C100T non-CC",23.5 (n = 10) msec
same,QTcF change,"QTc interval [1]; iloperidone, KCNQ1 79764 GG and CYP2D6G1846A GG",19.5 (n = 15) msec
same,QTcF change,"QTc interval [1]; iloperidone, KCNQ1 79764 GG and CYP2D6G1846A non-GG",25.5 (n = 10) msec
same,"average QTc change, GG genotype relative to non-GG genotype","QTc interval [1]; iloperidone, KCNQ1 79764 SNP",more than twice the change in individuals with a non-GG genotype
same,QTcF change,"QTc interval [1]; iloperidone, KCNQ1 79764 non-GG and CYP2D6C100T CC",7.4 (n = 35) msec
same,QTcF change,"QTc interval [1]; iloperidone, KCNQ1 79764 non-GG and CYP2D6C100T non-CC",12.6 (n = 7) msec
same,QTcF change,"QTc interval [1]; iloperidone, KCNQ1 79764 non-GG and CYP2D6G1846A GG",7.6 (n = 34) msec
same,QTcF change,"QTc interval [1]; iloperidone, KCNQ1 79764 non-GG and CYP2D6G1846A non-GG",9.6 (n = 6) msec
same,QTcF change,"QTc interval [1]; iloperidone, KCNQ1 286414 position SNP genotype AA",12.50 ms and 12.51 ms
same,QTcF change,"QTc interval [1]; iloperidone, KCNQ1 286414 position SNP genotype AG",3.15 ms
same,QTcF change,"QTc interval [1]; iloperidone, KCNQ1 286414 position SNP genotype GG",10.34 ms
same,QTcF change,"QTc interval [1]; iloperidone, KCNQ1 286414 position SNP genotype Non-AA",5.16 ms
same,"High QT, + test (number of individuals)",QT interval; threshold QT > 5 msec,102
same,"Low QT, + test (number of individuals)",QT interval; threshold QT > 5 msec,47
same,"High QT, − test (number of individuals)",QT interval; threshold QT > 5 msec,15
same,"Low QT, − test (number of individuals)",QT interval; threshold QT > 5 msec,19
same,Odds Ratio,QT interval; threshold QT > 5 msec,2.749
same,"High QT, + test (number of individuals)",QT interval; threshold QT > 15 msec,64
same,"Low QT, + test (number of individuals)",QT interval; threshold QT > 15 msec,85
same,"High QT, − test (number of individuals)",QT interval; threshold QT > 15 msec,9
same,"Low QT, − test (number of individuals)",QT interval; threshold QT > 15 msec,25
same,Odds Ratio,QT interval; threshold QT > 15 msec,2.092
same,"High QT, + test (number of individuals)",QT interval; threshold QT > 30 msec,26
same,"Low QT, + test (number of individuals)",QT interval; threshold QT > 30 msec,123
same,"High QT, − test (number of individuals)",QT interval; threshold QT > 30 msec,2
same,"Low QT, − test (number of individuals)",QT interval; threshold QT > 30 msec,32
same,Odds Ratio,QT interval; threshold QT > 30 msec,3.382
same,effect on the QTcF duration with metabolic inhibition,QTc interval [2]; adding an inhibitor of CYP2D6,increases the effect of iloperidone on the QTcF duration
same,effect on QTc duration,QTc interval [2]; in vivo,some effects on QTc duration
OCCOCCN1CCN(C2=Nc3ccccc3Sc3ccccc32)CC1 [Quetiapine],QTc prolongation,QTc interval [3],associated with a prolongation of the QTc interval
"O=C1Cc2cc(CCN3CCN(c4nsc5ccccc45)CC3)c(Cl)cc2N1 [Ziprasidone, ziprasidone]",QTcF change,"QTc interval [1]; ziprasidone 80 mg b.i.d., KCNQ1 79764 SNP genotype CC",8.30 ms
same,QTcF change,"QTc interval [1]; ziprasidone 80 mg b.i.d., KCNQ1 79764 SNP genotype CG",6.19 ms
same,QTcF change,"QTc interval [1]; ziprasidone 80 mg b.i.d., KCNQ1 79764 SNP genotype GG",15.32 ms
same,QTcF change,"QTc interval [1]; ziprasidone 80 mg b.i.d., KCNQ1 79764 SNP genotype Non-GG",6.75 ms
same,QTc prolongation,QTc interval [3],"highest degree of QTc prolongation, followed by ziprasidone"
O=C(CCCN1CCC(O)(c2ccc(Cl)cc2)CC1)c1ccc(F)cc1 [haloperidol],increase in QTc with metabolic inhibition,QTc interval [3]; with metabolic inhibitors of the CYP450 isoenzyme responsible for the metabolism of each drug,doubling of QTc
Cc1cc2c(s1)Nc1ccccc1N=C2N1CCN(C)CC1 [olanzapine],QTc prolongation,QTc interval [3],associated with a prolongation of the QTc interval
Cc1nc2n(c(=O)c1CCN1CCC(c3noc4cc(F)ccc34)CC1)CCCC2 [risperidone],QTc prolongation,QTc interval [3],associated with a prolongation of the QTc interval
